Reference: patent US12139471B2, “NLRP3 inflammasome inhibitors” (Novartis AG, priority 2019, dated 2024)
Counter-ions that a name gives are not always drawn.

Experiments:
NLRP3 inflammasome = target: T1, NLRP3 inflammasome (Homo sapiens, UniProt Q96P20); assay: IL-1β secretion assay (nigericin-activated, PMA-differentiated THP-1 cells, HTRF); assay type: cell-based; details: PMA-differentiated THP-1 cells; compound 1 hour, then 15 μM nigericin, 3 hours; IL-1β by HTRF; read-out: IL-1β IC50
T1 construct: host or cells: THP-1 cells, PMA-differentiated
Method: 10 μL supernatant was removed, and IL-1β levels were monitored using an HTRF assay (CisBio, #62IL1PEC) according to manufacturers' instructions. Viability and pyroptosis was monitored with the addition of PrestoBlue cell viability reagent (Life Technologies, #A13261) directly to the cell culture plate.
IC50 values were calculated from the plot of percentage of inhibition versus the inhibitor concentration by a logistics fit according to: y=A2+(A1−A2)/(1+(x/IC50)^p) where y is the %-inhibition at the inhibitor concentration, x. A1 is the lowest inhibition value, i.e. 0%, and A2 the maximum inhibition value, i.e. 100%. The exponent, p, is the Hill coefficient. The curve fitting was conducted with an internally developed software suite.
NLRP3-dependent IL-1β secretion was stimulated in PMA-differentiated THP-1 cells by the addition of nigericin, and cytokines were measured in the […] after 3 hours. As discussed above, activation of the NLRP3 inflammasome requires both an NF-kB-dependent priming step and the addition of a NLRP3 activator.

[1] = test system: NF-kB-dependent TNF-α secretion; assay: TNF-α secretion assay (counter screen, THP-1 cells, HTRF); assay type: cell-based; details: undifferentiated THP-1 cells, Pam3CSK4-stimulated, 3 hours, TNF-α by HTRF
Method: Monocytic THP-1 cells were maintained according to providers' instructions in RPMI media as described above. […] Experimental compounds were prepared and added as described above. TNF-α secretion was triggered by the addition of either 1 μg/mL LPS (Sigma, #L4391) or 100 ng/mL Pam3CSK4 (Invivogen, #tlri-pms) depending on the experiment, and cells were incubated for 3 hours. 10 μL supernatant was removed, and TNF-α levels were monitored using an HTRF assay (CisBio, #62TNFPEC) according to manufacturers' instructions. Viability was monitored as described above.

T1 sequence (Q96P20 whole entry): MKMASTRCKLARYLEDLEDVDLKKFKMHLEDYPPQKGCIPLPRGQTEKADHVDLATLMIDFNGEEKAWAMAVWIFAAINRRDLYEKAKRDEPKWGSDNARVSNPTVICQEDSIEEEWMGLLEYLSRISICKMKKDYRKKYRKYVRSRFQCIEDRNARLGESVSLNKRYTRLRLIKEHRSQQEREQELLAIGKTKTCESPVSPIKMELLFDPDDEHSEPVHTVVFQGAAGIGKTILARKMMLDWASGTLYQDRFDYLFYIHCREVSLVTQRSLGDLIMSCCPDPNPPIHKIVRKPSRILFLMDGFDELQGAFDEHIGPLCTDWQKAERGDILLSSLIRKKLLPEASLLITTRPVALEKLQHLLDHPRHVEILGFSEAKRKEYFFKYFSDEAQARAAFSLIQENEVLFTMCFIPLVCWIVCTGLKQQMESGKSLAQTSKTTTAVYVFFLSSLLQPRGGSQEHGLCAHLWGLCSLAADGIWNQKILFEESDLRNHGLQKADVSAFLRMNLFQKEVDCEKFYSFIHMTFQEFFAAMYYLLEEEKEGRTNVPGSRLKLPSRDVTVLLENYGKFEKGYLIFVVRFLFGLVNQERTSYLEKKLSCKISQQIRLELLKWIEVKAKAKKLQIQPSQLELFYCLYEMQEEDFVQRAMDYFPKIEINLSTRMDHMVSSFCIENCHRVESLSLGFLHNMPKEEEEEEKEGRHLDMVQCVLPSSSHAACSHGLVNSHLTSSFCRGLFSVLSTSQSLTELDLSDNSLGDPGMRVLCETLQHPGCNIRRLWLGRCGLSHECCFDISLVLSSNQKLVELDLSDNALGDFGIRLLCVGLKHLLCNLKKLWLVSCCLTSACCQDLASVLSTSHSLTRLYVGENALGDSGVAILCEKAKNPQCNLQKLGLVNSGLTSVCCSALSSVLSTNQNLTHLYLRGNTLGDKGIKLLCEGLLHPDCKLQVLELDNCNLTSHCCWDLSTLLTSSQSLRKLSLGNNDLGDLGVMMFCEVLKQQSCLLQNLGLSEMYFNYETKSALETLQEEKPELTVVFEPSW

Compound | IC50 (NLRP3 inflammasome) [nM] | IC50 [1] [nM]
Oc1cc(C(F)(F)F)cc(Cl)c1-c1ccc(N[C@H]2C[C@H](O)C2)nn1 [Ex 32, 3-Chloro-2-(6-((trans-3-hydroxycyclobutyl)amino)pyridazin-3-yl)-5-(trifluoromethyl)phenol] | 218 | 
C[C@]1(O)C[C@@H](Nc2cc(C(F)(F)F)c(-c3ccc(C(F)(F)F)cc3O)nn2)C1 [Ex 66, 2-(6-(((cis)-3-Hydroxy-3-methylcyclobutyl)amino)-4-(trifluoromethyl)pyridazin-3-yl)-5-(trifluoromethyl)phenol] | 187 | 
Cc1cc(C(F)(F)F)cc(O)c1-c1cc(C(F)(F)F)c(N[C@H]2C[C@@](C)(O)C2)nn1 [Ex 56, 2-(6-(((cis)-3-Hydroxy-3-methylcyclobutyl)amino)-5-(trifluoromethyl)pyridazin-3-yl)-3-methyl-5-(trifluoromethyl)phenol] | 8.3 | 
Cc1cc(C(F)(F)F)cc(O)c1-c1ccc(NC[C@@H](F)C(C)(C)O)nn1 [Ex 60, (R)-2-(6-((2-Fluoro-3-hydroxy-3-methylbutyl)amino)pyridazin-3-yl)-3-methyl-5-(trifluoromethyl)phenol] | 139 | 
Cc1cc(C(F)(F)F)cc(O)c1-c1ccc(NC[C@H]2CCCN2)nn1 [Ex 14, (R)-3-Methyl-2-(6-((pyrrolidin-2-ylmethyl)amino)pyridazin-3-yl)-5-(trifluoromethyl)phenol] | 85.7 | 
Cc1cc(C(F)(F)F)cc(O)c1-c1ccc(NC[C@@H]2CC(F)(F)CN2)nn1 [Ex 22, (S)-2-(6-(((4,4-Difluoropyrrolidin-2-yl)methyl)amino)pyridazin-3-yl)-3-methyl-5-(trifluoromethyl)phenol] | 80.7 | 
Cc1cc(C(F)(F)F)cc(O)c1-c1ccc(N[C@H]2C[C@@](C)(O)C2)nn1 [Ex 2, 2-(6-(((cis)-3-Hydroxy-3-methylcyclobutyl)amino)pyridazin-3-yl)-3-methyl-5-(trifluoromethyl)phenol] | 10.2 | 
Cc1cc(C(F)(F)F)cc(O)c1-c1ccc(N[C@H]2CC[C@H](O)[C@@H]2O)nn1 (single isomer, unassigned) [Ex 89a] | 59.7 | 
Cc1cc(-c2c(C)cc(C(F)(F)F)cc2O)nnc1NC1CCC(=O)N(C)C1 (centres unmarked) [Ex 99, 5-((6-(2-Hydroxy-6-methyl-4-(trifluoromethyl)phenyl)-4-methylpyridazin-3-yl)amino)-1-methylpiperidin-2-one] | 75 | 
CCN1CCC[C@H]1CNc1ccc(-c2c(C)cc(C(F)(F)F)cc2O)nn1 [Ex 8, (S)-2-(6-(((1-Ethylpyrrolidin-2-yl)methyl)amino)pyridazin-3-yl)-3-methyl-5-(trifluoromethyl)phenol] | 24.1 | 
Cc1cc(C(F)(F)F)cc(O)c1-c1ccc(N[C@H]2CCCN3CCC[C@@H]23)nn1 (single isomer, unassigned) [Ex 83b] | 69.4 | 
Cc1cc(C(F)(F)F)cc(O)c1-c1ccc(N[C@H]2CCC[C@H](O)C2)nn1 [Ex 57, 2-(6-(((1S,3S)-3-Hydroxycyclohexyl)amino)pyridazin-3-yl)-3-methyl-5-(trifluoromethyl)phenol] | 224 | 
Cc1cc(C(F)(F)F)cc(O)c1-c1ccc(NCC(C)(C)O)nn1 [Ex 15, 2-(6-((2-Hydroxy-2-methylpropyl)amino)pyridazin-3-yl)-3-methyl-5-(trifluoromethyl)phenol] | 85.9 | 
(3R)-3-((6-(2-Hydroxy-6-methyl-4-(trifluoromethyl)phenyl)-4-methylpyridazin-3-ylamino)-1-methylpiperidine 1-oxide TFA-salt [Ex 104] | 59 | > 100000
Cc1cc(C(F)(F)F)cc(O)c1-c1ccc(NC2(C)CCCN(C)C2)nn1 (centres unmarked) [Ex 52, 2-(6-((1,3-Dimethylpiperidin-3-yl)amino)pyridazin-3-yl)-3-methyl-5-(trifluoromethyl)phenol TFA-salt] | 186 | 
Cc1cc(C(F)(F)F)cc(O)c1-c1ccc(NC[C@](C)(O)CO)nn1 (single isomer, unassigned) [Ex 88a] | 62.3 | 

Compound | IC50 (NLRP3 inflammasome) [nM] | IC50 [1] [nM]
Cc1cc(C(F)(F)F)cc(O)c1-c1ccc(NCC2(O)CCCC2)nn1 [Ex 98, 2-(6-(((1-Hydroxycyclopentyl)methyl)amino)pyridazin-3-yl)-3-methyl-5-(trifluoromethyl)phenol] | 115 | 
Cc1cc(C(F)(F)F)cc(O)c1-c1ccc(NCC(O)(C(F)(F)F)C(F)(F)F)nn1 [Ex 10, 3-Methyl-2-(6((3,3,3-trifluoro-2-hydroxy-2-(trifluoromethyl)propyl)amino)pyridazin-3-yl)-5-(trifluoromethyl)phenol] | 349 | 
Oc1cc(C(F)(F)F)cc(Cl)c1-c1ccc(N[C@H]2C[C@@H](O)C2)nn1 [Ex 31, 3-Chloro-2-(6-((cis-3-hydroxycyclobutyl)amino)pyridazin-3-yl)-5-(trifluoromethyl)phenol] | 167 | 
Cc1cc(C)c(-c2ccc(NCCc3ccc(S(N)(=O)=O)cc3)nn2)c(O)c1 [Ex 103, 4-(2-((6-(2-Hydroxy-4,6-dimethylphenyl)pyridazin-3-yl)amino)ethyl)benzenesulfonamide] | 136 | 
Cc1cc(-c2c(C)cc(C(F)(F)F)cc2O)nnc1NCC(C)(C)O [Ex 72, 2-(6-((2-Hydroxy-2-methylpropyl)amino)-5-methylpyridazin-3-yl)-3-methyl-5-(trifluoromethyl)phenol] | 44.9 | 
Cc1cc(C(F)(F)F)cc(O)c1-c1ccc(NC[C@](C)(O)C(F)(F)F)nn1 [Ex 78, (S)-3-Methyl-2-(6-((3,3,3-trifluoro-2-hydroxy-2-methylpropyl)amino)pyridazin-3-yl)-5-(trifluoromethyl)phenol HCl-salt] | 198 | 
Cc1cc(C(F)(F)F)cc(O)c1-c1ccc(NC[C@@H]2C[C@@H](F)CN2)nn1 [Ex 76, 2-(6-((((2S,4R)-4-Fluoropyrrolidin-2-yl)methyl)amino)pyridazin-3-yl)-3-methyl-5-(trifluoromethyl)phenol] | 89.7 | 
Cc1cc(C(F)(F)F)cc(O)c1-c1ccc(NC2CCC3CCC2N3CCO)nn1 (single isomer, unassigned) [Ex 86a] | 175 | 
Cc1cc(C(F)(F)F)cc(O)c1-c1ccc(NCC2COCCN2C)nn1 (racemic) [Ex 77, (rac)-3-Methyl-2-(6-(((4-methylmorpholin-3-yl)methyl)amino)pyridazin-3-yl)-5-(trifluoromethyl)phenol] | 61.9 | 
Cc1cc(C(F)(F)F)cc(O)c1-c1ccc(N[C@@H]2CCCN(C)C2=O)nn1 [Ex 59, (R)-3-((6-(2-Hydroxy-6-methyl-4-(trifluoromethyl)phenyl)pyridazin-3-yl)amino)-1-methylpiperidin-2-one] | 35.9 | 
Cc1cc(N[C@H]2C[C@@](C)(O)C2)nnc1-c1ccc(OC(F)(F)F)cc1O [Ex 81, 2-(6-(((cis)-3-Hydroxy-3-methylcyclobutyl)amino)-4-methylpyridazin-3-yl)-5-(trifluoromethoxy)phenol] | 130 | 
Cc1cc(C(F)(F)F)cc(O)c1-c1ccc(NC[C@H](O)C(C)C)nn1 (single isomer, unassigned) [Ex 90b] | 115 | 
Cc1cc(C(F)(F)F)cc(O)c1-c1ccc(N[C@@H]2CC[C@@H](O)[C@H]2O)nn1 (single isomer, unassigned) [Ex 89b] | 182 | 
Cc1ncccc1CNc1ccc(-c2c(O)cc(C(F)(F)F)cc2Cl)nn1 [Ex 34, 3-Chloro-2-(6-(((2-methylpyridin-3-yl)methyl)amino)pyridazin-3-yl)-5-(trifluoromethyl)phenol] | 496 | 
Cc1cc(C(F)(F)F)cc(O)c1-c1ccc(N[C@@H]2CCC(=O)NC2)nn1 [Ex 61, (R)-5-((6-(2-Hydroxy-6-methyl-4-(trifluoromethyl)phenyl)pyridazin-3-yl)amino)piperidin-2-one] | 65.8 | 
